Values of other authors in patent US5426034A, “Process for the production and use of a stable 6-phosphogluconolactonase” (Boehringer Mannheim GmbH, priority 1990, dated 1995).

Tested on: 6-phosphogluconolactonase (phosphogluconolactonase) from Zymomonas mobilis
Settings: Zymomonas enzyme, literature value (Scopes 1985); substrate specificity

Question: Which Km does the source give for O=C1O[C@H](COP(=O)(O)O)[C@@H](O)[C@H](O)[C@H]1O [6-phosphogluconolactone] here?
Answer: 20 to 30 µM
